The values that follow are results of earlier work, collected in patent US6071534A, “Multivesicular liposomes with controlled release of active agents encapsulated in the presence of a hydrochloride” (priority 1998, dated 2000).

For this series the following is noted: after IP, IV, IT, IA, IM or SC dose.

Consider `Nc1ccn([C@@H]2O[C@H](CO)[C@@H](O)[C@@H]2O)c(=O)n1` [cytarabine, cytosine arabinoside], for which the half-life entry is reported as “very short”.
